{"source": "patent US20070135470A1", "about": "“Utilization of vinpocetine to avoid complications in particular those associated to hearing which occur with epilepsy, and treatment thereof” (UNIVERSIDAD NACIONAL AUTONOMA DE MEXICO, priority 2003, published 2007)", "test_system": "epilepsy induced by PTZ in guinea pigs", "experiment": "ABR wave parameters (amplitude, latency) in PTZ-induced epilepsy", "assay_type": "in vivo, guinea pig", "settings": "100 dB", "method": "Experiments were performed in pigmented adult male guinea pigs initially weighing 349±38 g. ABRs recordings were used to evaluate the hearing status of each animal and EEG recordings to evaluate changes in cortical excitability. The ABR and EEG recordings were obtained following a method that we have previously reported (Nekrassov and Sitges, 2003). The Institutional Animal Use and Care Committee approved all experimental procedures.\nThree types of recordings were performed in the anaesthetized animals, namely the ABR recordings elicited by a stimulus of high intensity (100 dB), the ABR recordings for determination of the auditory threshold and the EEG recordings.\nDetermination of ABR wave parameters. The latency and amplitude of each wave component of the ABR elicited by a stimulus of 100 dB with pure tone frequencies of 4 and 8 kHz was measured in all the ABR recordings obtained under the different experimental conditions at the specified times. The latency of each ABR wave (in ms) refers to the time interval between the onset of the auditory stimulus and the positive peak of the wave. The onset of the stimulus is indicated by the vertical arrow at the bottom of the recordings on FIG. 1. The peak amplitude (in μV) of each wave of the ABR is the difference between the positive peak of the wave and the reference baseline (trace between the stimulus and the appearance of the first ABR wave on FIG. 1).\nStudent's t-test was used for the evaluation of the differences between results obtained before and at the specified times after the injection of the convulsing agents. The criterion for statistical significance for all measures was P≦0.05. All data are expressed as means±standard error of the mean. In figures and tables the symbol * is used for indicating statistic significant differences.\nEight male guinea pigs were entered into this study. PTZ was dissolved in saline and vinpocetine in a saline acidified (with HCl) adjusted to pH 4 (with NaOH). Four hours after injecting guinea pigs with vehicle (acidified saline used to dissolve vinpocetine) the animals were anaesthetized and a first set of ABR and EEG recordings was taken before the injection (i.p) of the convulsing agent, PTZ. The animals were injected with PTZ (100 mg/kg) and about 2 min after injecting PTZ (ictal period) the EEG recording was taken. Then the other series of ABR and EEG recordings were taken at specific times within the post-ictal period. After two weeks the same series of recordings was taken but instead vehicle the animals were injected with vinpocetine (2 mg/kg) 4 hours before the injection of PTZ."}
{"smiles": "CCOC(=O)C1=C[C@]2(CC)CCCN3CCc4c(n1c1ccccc41)[C@@H]32", "note": "[Vinpocetine, ethyl apovincamine-22-oate]", "values": [{"measurement": "effect on the increase in latencies of the ABR waves P2, P3 and P4 produced by PTZ", "setting": "4 and 8 kHz, vinpocetine 2 mg/kg 4 h before PTZ, FIG. 2", "result": "inhibits the increase"}, {"measurement": "P4 wave peak amplitude of the ABR", "setting": "4 kHz, 10 min after PTZ 100 mg/kg i.p., vinpocetine 2 mg/kg or vehicle 4 h before PTZ", "result": "2.55 ± 0.3", "unit": "μV"}, {"measurement": "P4 wave peak amplitude of the ABR", "setting": "4 kHz, 20 min after PTZ 100 mg/kg i.p., vinpocetine 2 mg/kg or vehicle 4 h before PTZ", "result": "2.52 ± 0.2", "unit": "μV"}, {"measurement": "P4 wave peak amplitude of the ABR", "setting": "4 kHz, 30 min after PTZ 100 mg/kg i.p., vinpocetine 2 mg/kg or vehicle 4 h before PTZ", "result": "2.55 ± 0.2", "unit": "μV"}, {"measurement": "P4 wave peak amplitude of the ABR", "setting": "4 kHz, 50 min after PTZ 100 mg/kg i.p., vinpocetine 2 mg/kg or vehicle 4 h before PTZ", "result": "2.52 ± 0.2", "unit": "μV"}, {"measurement": "P4 wave peak amplitude of the ABR", "setting": "4 kHz, before PTZ injection, 4 h after vinpocetine 2 mg/kg, mean±SEM, 8 animals", "result": "2.82 ± 0.3", "unit": "μV"}, {"measurement": "P4 wave peak amplitude of the ABR", "setting": "8 kHz, 10 min after PTZ 100 mg/kg i.p., vinpocetine 2 mg/kg or vehicle 4 h before PTZ", "result": "2.56 ± 0.1", "unit": "μV"}, {"measurement": "P4 wave peak amplitude of the ABR", "setting": "8 kHz, 20 min after PTZ 100 mg/kg i.p., vinpocetine 2 mg/kg or vehicle 4 h before PTZ", "result": "2.71 ± 0.2", "unit": "μV"}, {"measurement": "P4 wave peak amplitude of the ABR", "setting": "8 kHz, 30 min after PTZ 100 mg/kg i.p., vinpocetine 2 mg/kg or vehicle 4 h before PTZ", "result": "2.55 ± 0.2", "unit": "μV"}, {"measurement": "P4 wave peak amplitude of the ABR", "setting": "8 kHz, 50 min after PTZ 100 mg/kg i.p., vinpocetine 2 mg/kg or vehicle 4 h before PTZ", "result": "2.56 ± 0.1", "unit": "μV"}, {"measurement": "P4 wave peak amplitude of the ABR", "setting": "8 kHz, before PTZ injection, 4 h after vinpocetine 2 mg/kg, mean±SEM, 8 animals", "result": "2.69 ± 0.1", "unit": "μV"}]}
